Legend:
[1] = system: Tobacco Budworm (Heliothis virescens); assay: Tobacco budworm feeding bioassay (egg and larval stage, 96-well agar diet plate, percent mortality); format: in vivo; conditions: average of three replicates
Procedure: (§1) Tobacco Budworm (Heliothis virescens) and Beet Armyworm (Spodoptera littoralis) Feeding Bioassay
(§2) To compare insecticidal activities of the test compounds against egg and larval stage Heliothis virescens or Spodoptera littoralis, 50 ul of a 1:1 acetone:water solution was added to each sample and then solublized for one-hour using an orbital shaker. Each of the resulting sample solutions (50, 120, or 250 ppm) was then applied to a well in a 96-well microtiter plate, each well containing an artificial agar-based lepidoptera diet (modified Shorey diet, Southland Products, Lake Village, Ariz.). Each sample was run in triplicate. Plates were allowed to dry for about 4 hours, covered and held for infestation the next day. Each well of the treated plate was infested with 3-5 eggs (0-2 days old) of either H. virescens or S. littoralis. Plates were then covered with cotton batting and sealed with microplate lid. The treated plates were held inverted in an incubator (80+% rh) for six to seven days. Following the incubation period, the plates were graded for percent mortality using a binocular microscope. Data for each sample was reported as the average percent mortality of the three replicates.

[2] = system: Beet Armyworm (Spodoptera littoralis); assay: Beet armyworm feeding bioassay (egg and larval stage, 96-well agar diet plate, percent mortality); format: in vivo; conditions: average of three replicates
Procedure: as §1, §2

| Compound | Tobacco Budworm Diet (6 day) Mortality (%) ([1]; Rate 50 ppm) | Beet Armyworm Diet (6 day) Mortality (%) ([2]; Rate 50 ppm) | Tobacco Budworm Diet (6 day) Mortality (%) ([1]; Rate 120 ppm) | Beet Armyworm Diet (6 day) Mortality (%) ([2]; Rate 120 ppm) |
| --- | --- | --- | --- | --- |
| CCC=CC1CCCC(OC2CCC(N(C)C)C(C)O2)C(C)C(=O)C2=CC3C(C=CC4CC(OC5OC(C)C(OC)C(OC)C5OC)CC43)C2CC(=O)O1 (stereo not shown) [Compound 1, for-rham-I, reference compound] | 100 | 100 | – | – |
| CCC=CC1CCCC(OC2CCC(N(C)C)C(C)O2)C(C)C(=O)C2=CC3C(C=CC4CC(OC5OC(C)C(OC)C(OC)C5O)CC43)C2CC(=O)O1 (stereo not shown) [Compound 5, for-(2′-O-desmethylrham)-I] | 100 | 100 | – | – |
| CCC=CC1CCCC(OC2CCC(N(C)C)C(C)O2)C(C)C(=O)C2=CC3C(C=CC4CC(OC5OC(C)C(OC)C(O)C5OC)CC43)C2CC(=O)O1 (stereo not shown) [Compound 6, for-(3′-O-desmethylrham)-I] | 100 | 100 | – | – |
| CCC=CC1CCCC(OC2CCC(N(C)C)C(C)O2)C(C)C(=O)C2=CC3C(C=CC4CC(OC5OC(C)C(O)C(OC)C5OC)CC43)C2CC(=O)O1 (stereo not shown) [Compound 32, for-(4′-O-desmethyl-rham)-I] | 100 | 100 | – | – |
| CCC=CC1CCCC(OC2CCC(N(C)C)C(C)O2)C(C)C(=O)C2=CC3C(C=CC4CC(OC5OC(C)C(O)C(O)C5O)CC43)C2CC(=O)O1 (stereo not shown) [Compound 33, for-(2′,3′,4′-tri-O-desmethyl-rham)-I] | 100 | 100 | – | – |
| CCC=CC1CCCC(OC2CCC(N(C)C)C(C)O2)C(C)C(=O)C2=CC3C(C=CC4C(O)C(OC5OC(C)C(O)C(OC)C5OC)CC43)C2CC(=O)O1 (stereo not shown) [Compound 34, for-(4′-O-desmethyl-rham)-III] | 100 | 100 | – | – |
| CCC=CC1CCCC(OC2CCC(N(C)C)C(C)O2)C(C)C(=O)C2=CC3C(C=CC4CC(OC5OC(C)C(O)C(O)C5OC)CC43)C2CC(=O)O1 (stereo not shown) [Compound 37] | 100 | 100 | – | – |
| CCC=CC1CCCC(OC2CCC(N(C)C)C(C)O2)C(C)C(=O)C2=CC3C(C=CC4C(O)C(OC5OC(C)C(O)C(O)C5OC)CC43)C2CC(=O)O1 (stereo not shown) [Compound 40, for-(3′,4′-di-O-desmethyl-rham) III] | 100 | 93 | – | – |
| CCC=CC1CCCC(OC2CCC(N(C)C)C(C)O2)C(C)C(=O)C2=CC3C(C=CC4C(O)C(OC5OC(C)C(OC)C(O)C5OC)CC43)C2CC(=O)O1 (stereo not shown) [Compound 41, for-(3′-O-desmethyl-rham) III] | 100 | 100 | – | – |
| CC=CC1CCCC(OC2CCC(N(C)C)C(C)O2)C(C)C(=O)C2=CC3C(C=CC4CC(OC5OC(C)C(O)C(O)C5OC)CC43)C2CC(=O)O1 (stereo not shown) [Compound 43, 24-desmethyl-for-(3′,4′-di-O-desmethyl-rham)-I] | 33 | 80 | – | – |
| CCC=CC1CCCC(OC2CCC(NC)C(C)O2)C(C)C(=O)C2=CC3C(C=CC4CC(OC5OC(C)C(OC)C(O)C5OC)CC43)C2CC(=O)O1 (stereo not shown) [Compound 137, (4″-N-desmethyl-for)-(3′-O-desmethyl-rham)-I] | – | – | 100 | 100 |
| COC1C(C)OC(OC2CC3C=CC4C5CC(=O)OC(C=CC(C)O)CCCC(OC6CCC(N(C)C)C(C)O6)C(C)C(=O)C5=CC4C3C2)C(OC)C1O (stereo not shown) [Compound 141, 24-hydroxy-for-(3′-O-desmethyl-rham)-I] | – | – | 100 | 67 |
| for-(3′,4′-di-O-desmethyl-rham)-II [Compound 44] | 100 | 100 | – | – |
| for-(3′,4′-di-O-desmethyl-rham)-IV [Compound 163] | – | – | 100 | 100 |

Source: patent US20040097377A1, “Pesticidal spinosyn derivates” (priority 2003, published 2004)
